Patent US7326721B2 (Hypnion, Inc., priority 2003, dated 2008)
Where two headings read alike, the source gives them in different places.

Key:
[1] = target: Choline Acetyltransferase (Homo sapiens, UniProt P28329); assay: Table 12 panel: Choline Acetyltransferase; format: biochemical; details: 1.0E−6, average N=2
Source text: (§1) The percentage inhibition (average; N=2) for these receptors is shown below in Table 12.
(§2) Values in Table 12 are expressed as percentage inhibition of specific binding, and these values represent the average of replicate tubes at each of the concentrations tested.

adult male Wistar rats = assay: SCORE-2000 sleep-wakefulness, locomotor activity and body temperature monitoring; format: in vivo, rat
Vasopressin 1 = Vasopressin 1 (Homo sapiens, UniProt P37288); assay: Table 12 panel: Vasopressin 1; details: 1.0E−6, average N=2, read-out: percentage inhibition of specific binding
Source text: as §1, §2

GABA-B = GABA-B (Homo sapiens, UniProt Q9UBS5); assay: Table 12 panel: GABA-B; details: 1.0E−6, average N=2, read-out: percentage inhibition of specific binding
Source text: as §1, §2

Orphenin (hr) = target: T1, Orphenin (hr) (Homo sapiens, UniProt P41146); assay: Table 12 panel: Orphenin; details: 1.0E−6, average N=2, read-out: percentage inhibition of specific binding
T1 construct: expressed in transfected cells
Source text: as §1, §2

[2] = test system: Potassium Channel, ATP-Sensitive; assay: Table 12 panel: Potassium Channel, ATP-Sensitive; format: binding; details: 1.0E−6, average N=2
Source text: as §1, §2

Calcium Channel, Type N = Calcium Channel, Type N (Homo sapiens, UniProt Q00975); assay: Table 12 panel: Calcium Channel, Type N; details: 1.0E−6, average N=2, read-out: percentage inhibition of specific binding
Source text: as §1, §2

Endothelin, ET-A (h) = Endothelin, ET-A (h) (Homo sapiens, UniProt P25101); assay: Table 12 panel: Endothelin, ET-A; details: 1.0E−6, average N=2, read-out: percentage inhibition of specific binding
Source text: as §1, §2

H1 histamine receptor = target: T2, H1 histamine receptor (Bos taurus, UniProt P30546); assay: Histamine H1 competitive binding assay ([3H]pyrilamine); set-up: species or system bovine
T2 construct: the receptors were obtained from bovine cerebellar membrane tissue; from tissue; host or cells: bovine cerebellar membranes

M2 muscarinic receptor = target: T3, M2 muscarinic receptor (Homo sapiens, UniProt P08172); assay: Muscarinic M2 binding assay; set-up: purchased PerkinElmer, Inc., Wellesley, Mass; host or cells: CHO cells
T3 sequence (P08172 1-466): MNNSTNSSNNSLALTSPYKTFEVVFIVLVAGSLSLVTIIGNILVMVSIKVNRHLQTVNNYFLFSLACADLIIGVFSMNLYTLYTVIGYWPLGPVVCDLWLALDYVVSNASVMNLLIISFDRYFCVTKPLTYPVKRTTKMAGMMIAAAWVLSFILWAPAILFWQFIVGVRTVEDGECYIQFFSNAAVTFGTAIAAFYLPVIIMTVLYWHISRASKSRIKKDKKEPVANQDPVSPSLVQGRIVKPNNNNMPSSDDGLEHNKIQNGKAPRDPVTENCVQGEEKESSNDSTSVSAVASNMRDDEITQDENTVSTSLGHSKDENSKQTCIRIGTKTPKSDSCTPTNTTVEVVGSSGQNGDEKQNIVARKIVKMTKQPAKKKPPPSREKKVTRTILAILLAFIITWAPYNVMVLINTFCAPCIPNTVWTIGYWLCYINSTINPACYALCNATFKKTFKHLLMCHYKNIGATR

M3 muscarinic receptor = M3 muscarinic receptor (Homo sapiens, UniProt P20309); assay: Muscarinic M3 binding assay; set-up: purchased PerkinElmer, Inc., Wellesley, Mass; host or cells: CHO cells
[3] = target: GABA A, BDZ, alpha 1 site (Homo sapiens, UniProt P14867+P18507); assay: Table 12 panel: GABA A, BDZ; details: 1.0E−6, average N=2, read-out: percentage inhibition of specific binding
Source text: as §1, §2

M1 muscarinic receptor = target: T4, M1 muscarinic receptor (Homo sapiens, UniProt P11229); assay: Muscarinic M1 binding assay ([3H]-scopolamine, N-methyl chloride); set-up: purchased PerkinElmer, Inc., Wellesley, Mass; host or cells: CHO cells
T4 sequence (P11229 1-460): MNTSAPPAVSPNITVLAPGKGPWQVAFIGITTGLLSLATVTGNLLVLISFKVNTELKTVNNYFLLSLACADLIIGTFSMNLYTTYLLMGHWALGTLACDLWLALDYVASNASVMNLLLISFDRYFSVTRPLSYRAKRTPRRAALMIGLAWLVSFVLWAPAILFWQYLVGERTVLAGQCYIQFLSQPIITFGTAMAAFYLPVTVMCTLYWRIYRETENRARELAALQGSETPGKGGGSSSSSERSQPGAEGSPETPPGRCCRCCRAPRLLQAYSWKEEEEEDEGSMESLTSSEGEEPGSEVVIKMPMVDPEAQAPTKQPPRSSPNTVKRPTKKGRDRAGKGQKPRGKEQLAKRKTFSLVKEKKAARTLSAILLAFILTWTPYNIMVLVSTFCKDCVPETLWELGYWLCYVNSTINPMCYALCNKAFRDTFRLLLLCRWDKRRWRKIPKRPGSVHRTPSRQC

[4] = test system: Glutamic Acid Decarboxylase; assay: Table 12 panel: Glutamic Acid Decarboxylase; format: biochemical; details: 1.0E−6, average N=2
Source text: as §1, §2

hERG = hERG (Homo sapiens, UniProt Q12809); assay: in vitro; details: pH 7.4
CYP 2D6 = target: T5, CYP 2D6 (Homo sapiens, UniProt P10635); assay: Cytochrome P450 inhibition: CYP 2D6; format: in vitro ADME; details: human microsomal preparation
T5 construct: in a commercially available human microsomal preparation; purchased; host or cells: human microsomal preparation
Method: Cytochrome P450 inhibition was studied with HY2901 in vitro. […] In addition, the in vitro rate of metabolism in rat, dog, monkey, and human hepatocyte cultures was determined for HY2901.

[5] = 1 h, read-out: percentage inhibition of specific binding

T2 sequence (P30546 whole entry): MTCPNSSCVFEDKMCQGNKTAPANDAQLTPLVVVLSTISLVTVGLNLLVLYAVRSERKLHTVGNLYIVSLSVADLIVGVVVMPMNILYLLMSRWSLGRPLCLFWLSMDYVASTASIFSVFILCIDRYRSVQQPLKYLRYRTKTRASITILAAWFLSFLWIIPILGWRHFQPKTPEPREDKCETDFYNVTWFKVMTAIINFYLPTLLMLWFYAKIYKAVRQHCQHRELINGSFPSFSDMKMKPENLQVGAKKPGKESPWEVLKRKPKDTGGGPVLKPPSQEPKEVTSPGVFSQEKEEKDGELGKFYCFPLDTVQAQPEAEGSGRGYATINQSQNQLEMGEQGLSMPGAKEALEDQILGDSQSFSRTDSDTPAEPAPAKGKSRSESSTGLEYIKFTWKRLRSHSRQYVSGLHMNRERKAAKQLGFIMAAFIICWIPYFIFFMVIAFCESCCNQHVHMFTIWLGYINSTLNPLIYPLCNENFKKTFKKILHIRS
Sequence of M3 muscarinic receptor (P20309 whole entry): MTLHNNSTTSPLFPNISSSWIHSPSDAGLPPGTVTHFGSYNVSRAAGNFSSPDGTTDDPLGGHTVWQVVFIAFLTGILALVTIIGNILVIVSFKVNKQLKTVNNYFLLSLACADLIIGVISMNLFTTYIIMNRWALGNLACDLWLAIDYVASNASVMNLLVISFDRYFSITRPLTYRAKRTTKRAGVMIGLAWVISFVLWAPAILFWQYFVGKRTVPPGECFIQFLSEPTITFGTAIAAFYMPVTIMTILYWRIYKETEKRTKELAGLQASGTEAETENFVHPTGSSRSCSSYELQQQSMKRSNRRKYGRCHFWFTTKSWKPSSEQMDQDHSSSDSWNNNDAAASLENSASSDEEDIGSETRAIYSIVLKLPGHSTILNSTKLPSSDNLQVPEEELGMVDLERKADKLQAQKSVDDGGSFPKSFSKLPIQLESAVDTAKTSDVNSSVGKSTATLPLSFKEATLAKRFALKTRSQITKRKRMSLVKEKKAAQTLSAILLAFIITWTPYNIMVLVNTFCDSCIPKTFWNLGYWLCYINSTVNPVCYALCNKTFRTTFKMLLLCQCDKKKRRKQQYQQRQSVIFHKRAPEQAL
Sequence of hERG (Q12809 whole entry): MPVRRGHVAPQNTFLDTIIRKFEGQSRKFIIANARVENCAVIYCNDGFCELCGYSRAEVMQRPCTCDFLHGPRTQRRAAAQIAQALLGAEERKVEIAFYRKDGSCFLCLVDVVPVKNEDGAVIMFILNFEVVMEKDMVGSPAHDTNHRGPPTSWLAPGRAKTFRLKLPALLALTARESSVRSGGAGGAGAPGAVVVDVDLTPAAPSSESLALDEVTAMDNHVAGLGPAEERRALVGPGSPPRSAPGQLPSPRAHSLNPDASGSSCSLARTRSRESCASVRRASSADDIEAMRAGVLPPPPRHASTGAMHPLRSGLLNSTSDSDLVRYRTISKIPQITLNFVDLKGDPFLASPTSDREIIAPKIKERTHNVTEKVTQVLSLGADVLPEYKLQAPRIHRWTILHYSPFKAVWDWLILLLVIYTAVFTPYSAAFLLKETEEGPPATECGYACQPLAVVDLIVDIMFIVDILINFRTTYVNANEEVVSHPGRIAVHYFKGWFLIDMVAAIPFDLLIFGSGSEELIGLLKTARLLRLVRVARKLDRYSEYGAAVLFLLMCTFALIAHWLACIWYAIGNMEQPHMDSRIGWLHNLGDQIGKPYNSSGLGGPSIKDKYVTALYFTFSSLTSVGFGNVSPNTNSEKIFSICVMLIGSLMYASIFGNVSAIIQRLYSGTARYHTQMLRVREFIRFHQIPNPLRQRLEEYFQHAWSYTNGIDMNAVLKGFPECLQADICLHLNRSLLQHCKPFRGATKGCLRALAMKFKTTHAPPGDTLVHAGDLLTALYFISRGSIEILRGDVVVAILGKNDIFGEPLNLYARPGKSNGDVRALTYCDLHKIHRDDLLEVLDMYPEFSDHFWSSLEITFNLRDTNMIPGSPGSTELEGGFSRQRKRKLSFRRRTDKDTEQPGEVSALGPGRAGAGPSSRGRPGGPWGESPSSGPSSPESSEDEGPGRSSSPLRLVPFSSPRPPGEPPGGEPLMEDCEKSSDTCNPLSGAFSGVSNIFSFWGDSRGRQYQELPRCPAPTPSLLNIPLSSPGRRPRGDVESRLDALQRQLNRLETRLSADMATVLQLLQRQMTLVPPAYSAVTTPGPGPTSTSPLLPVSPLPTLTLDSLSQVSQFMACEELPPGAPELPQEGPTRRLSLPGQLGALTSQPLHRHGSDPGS
Sequence of Choline Acetyltransferase (P28329 whole entry): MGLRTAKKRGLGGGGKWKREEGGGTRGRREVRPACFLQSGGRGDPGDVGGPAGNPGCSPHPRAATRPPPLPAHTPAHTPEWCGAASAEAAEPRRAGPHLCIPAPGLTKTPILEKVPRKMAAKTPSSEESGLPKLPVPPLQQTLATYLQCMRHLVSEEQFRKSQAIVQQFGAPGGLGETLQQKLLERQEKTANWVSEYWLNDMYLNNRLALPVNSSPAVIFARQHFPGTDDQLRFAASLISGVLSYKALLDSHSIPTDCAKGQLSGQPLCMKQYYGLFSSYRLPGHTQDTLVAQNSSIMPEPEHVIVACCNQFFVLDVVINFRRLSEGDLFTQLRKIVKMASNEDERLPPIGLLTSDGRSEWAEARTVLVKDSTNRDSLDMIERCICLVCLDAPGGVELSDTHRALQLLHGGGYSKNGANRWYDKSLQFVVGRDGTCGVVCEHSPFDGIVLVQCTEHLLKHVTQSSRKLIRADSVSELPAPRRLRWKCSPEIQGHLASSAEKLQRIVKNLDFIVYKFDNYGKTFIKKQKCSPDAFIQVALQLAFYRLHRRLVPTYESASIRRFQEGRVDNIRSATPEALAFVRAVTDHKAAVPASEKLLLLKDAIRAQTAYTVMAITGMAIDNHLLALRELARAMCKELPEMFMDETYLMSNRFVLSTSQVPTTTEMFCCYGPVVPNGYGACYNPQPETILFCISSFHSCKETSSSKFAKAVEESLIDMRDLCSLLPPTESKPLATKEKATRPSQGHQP
T1 sequence (P41146 whole entry): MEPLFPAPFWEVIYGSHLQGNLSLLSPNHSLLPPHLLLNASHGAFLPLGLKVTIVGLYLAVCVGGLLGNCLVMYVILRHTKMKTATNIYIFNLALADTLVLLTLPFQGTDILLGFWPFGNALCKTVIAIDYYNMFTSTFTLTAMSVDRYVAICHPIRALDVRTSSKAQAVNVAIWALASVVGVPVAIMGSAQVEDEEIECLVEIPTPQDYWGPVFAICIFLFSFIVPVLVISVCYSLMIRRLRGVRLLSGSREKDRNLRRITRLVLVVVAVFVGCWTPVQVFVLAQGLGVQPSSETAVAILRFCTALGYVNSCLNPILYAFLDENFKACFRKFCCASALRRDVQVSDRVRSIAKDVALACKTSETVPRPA
Sequence of GABA A, BDZ, alpha 1 site (P14867 28-456): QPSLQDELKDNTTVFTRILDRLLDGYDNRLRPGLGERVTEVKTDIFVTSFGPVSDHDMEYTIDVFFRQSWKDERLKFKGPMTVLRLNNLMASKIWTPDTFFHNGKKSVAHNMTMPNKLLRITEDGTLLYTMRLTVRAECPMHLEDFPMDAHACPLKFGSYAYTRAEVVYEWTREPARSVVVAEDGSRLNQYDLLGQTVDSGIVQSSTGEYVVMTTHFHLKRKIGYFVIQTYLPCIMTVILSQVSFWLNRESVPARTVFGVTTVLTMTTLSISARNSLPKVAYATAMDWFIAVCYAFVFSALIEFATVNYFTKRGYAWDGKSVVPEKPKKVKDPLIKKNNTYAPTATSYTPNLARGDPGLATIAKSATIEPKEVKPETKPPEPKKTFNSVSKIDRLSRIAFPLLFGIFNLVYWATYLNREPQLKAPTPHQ
Sequence of GABA A, BDZ, alpha 1 site (P18507 40-467 limits assumed): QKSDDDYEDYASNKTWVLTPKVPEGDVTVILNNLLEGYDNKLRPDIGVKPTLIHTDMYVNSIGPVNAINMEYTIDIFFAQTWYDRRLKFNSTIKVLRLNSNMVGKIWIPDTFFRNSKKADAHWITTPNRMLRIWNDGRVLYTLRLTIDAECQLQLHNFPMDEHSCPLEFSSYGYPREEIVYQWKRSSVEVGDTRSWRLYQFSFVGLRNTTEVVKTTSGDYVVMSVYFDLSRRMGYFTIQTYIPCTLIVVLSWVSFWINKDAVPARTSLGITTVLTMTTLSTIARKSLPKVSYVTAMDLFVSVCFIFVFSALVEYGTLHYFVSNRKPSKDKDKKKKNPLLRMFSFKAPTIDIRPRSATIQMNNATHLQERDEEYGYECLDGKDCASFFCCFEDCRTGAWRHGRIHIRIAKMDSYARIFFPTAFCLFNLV
Sequence of GABA A, BDZ, alpha 1 site (P47870 25-512 partner limits assumed): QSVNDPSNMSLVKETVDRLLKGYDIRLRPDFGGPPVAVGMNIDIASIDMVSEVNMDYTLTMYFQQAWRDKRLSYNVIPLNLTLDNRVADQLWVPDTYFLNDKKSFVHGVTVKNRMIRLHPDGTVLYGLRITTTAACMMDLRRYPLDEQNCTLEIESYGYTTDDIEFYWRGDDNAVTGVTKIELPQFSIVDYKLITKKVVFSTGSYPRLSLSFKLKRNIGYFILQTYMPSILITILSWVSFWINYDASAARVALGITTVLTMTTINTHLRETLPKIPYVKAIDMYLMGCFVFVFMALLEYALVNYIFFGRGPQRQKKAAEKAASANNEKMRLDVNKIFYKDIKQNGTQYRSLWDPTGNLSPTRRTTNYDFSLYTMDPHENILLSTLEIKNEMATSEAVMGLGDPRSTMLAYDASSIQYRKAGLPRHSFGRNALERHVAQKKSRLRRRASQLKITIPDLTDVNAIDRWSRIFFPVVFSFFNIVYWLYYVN

Question: For `CC(CC(=O)O)N1CCC(=C2c3ccc(F)cc3COc3ccccc32)CC1` (stereo not shown) [Compound 37], which percentage inhibition [1] is on record?
Answer: Its percentage inhibition is 6.51%.

Question: What about the REM inhibition (adult male Wistar rats; 10 mg/kg) of the same compound?
Answer: The REM inhibition was “did not produce any REM inhibition”.

Question: And the body temperature (adult male Wistar rats; 10 mg/kg)?
Answer: The body temperature was “no disproportional reduction”.

Question: What about the “locomotor activity (LMA)” value (adult male Wistar rats; 10 mg/kg) of the same compound?
Answer: Its value is “no disproportional reduction”.

Question: And the rebound insomnia (adult male Wistar rats; 10 mg/kg)?
Answer: The rebound insomnia was “did not produce any REM inhibition or rebound insomnia”.

Question: What about the “Cumulative NREM sleep time increase, adjusted for baseline and relative to vehicle” value (adult male Wistar rats; 10 mg/kg PO at CT-18) of the same compound?
Answer: The value was 53 min.

Question: What about the “absolute average sleep bout” value (adult male Wistar rats; 10 mg/kg PO at CT-18) of the same compound?
Answer: The value was 9 min.

Question: What about the “absolute longest sleep bout post-treatment” value (adult male Wistar rats; 10 mg/kg PO at CT-18) of the same compound?
Answer: Its value is 18.3 min.

Question: And the “average sleep bout length increase, adjusted for baseline and relative to vehicle” value (adult male Wistar rats; 10 mg/kg PO at CT-18)?
Answer: The value was 5.3 min.

Question: And the “longest sleep bout (LUSB), adjusted for baseline and relative to vehicle” value (adult male Wistar rats; 10 mg/kg PO at CT-18)?
Answer: The value was 10.8 min.

Question: And the “peak NREM sleep time” value (adult male Wistar rats; 10 mg/kg PO at CT-18)?
Answer: Its value is 64 % per hour.

Question: What about the body temperature (adult male Wistar rats; 30 mg/kg) of the same compound?
Answer: Its body temperature is “drop in body temperature occurred only at this high dose”.

Question: What about the “locomotor activity (LMA)” value (adult male Wistar rats; 30 mg/kg) of the same compound?
Answer: The value was “no disproportional reduction in LMA”.

Question: And the rebound insomnia (adult male Wistar rats; 30 mg/kg)?
Answer: Its rebound insomnia is “No rebound insomnia was observed”.

Question: And the “Cumulative NREM sleep time increase, adjusted for baseline and relative to vehicle” value (adult male Wistar rats; 30 mg/kg PO at CT-18)?
Answer: Its value is 62 min.

Question: What about the “absolute average sleep bout” value (adult male Wistar rats; 30 mg/kg PO at CT-18) of the same compound?
Answer: The value was 9 min.

Question: What about the “absolute longest sleep bout post-treatment” value (adult male Wistar rats; 30 mg/kg PO at CT-18) of the same compound?
Answer: Its value is 25 min.

Question: What about the “average sleep bout length increase, adjusted for baseline and relative to vehicle” value (adult male Wistar rats; 30 mg/kg PO at CT-18) of the same compound?
Answer: The value was 5.6 min.

Question: What about the “longest sleep bout (LUSB), adjusted for baseline and relative to vehicle” value (adult male Wistar rats; 30 mg/kg PO at CT-18) of the same compound?
Answer: The value was 17.1 min.

Question: And the “peak NREM sleep time” value (adult male Wistar rats; 30 mg/kg PO at CT-18)?
Answer: Its value is 72 % per hour.

Question: And the REM inhibition (adult male Wistar rats; 30 mg/kg at CT-18)?
Answer: The REM inhibition was “did not produce any appreciable REM inhibition”.

Question: And the inhibition at 1 µM (Vasopressin 1)?
Answer: Its inhibition at 1 µM is 11.6%.

Question: And the inhibition at 1 µM (GABA-B)?
Answer: Its inhibition at 1 µM is 2.17%.

Question: And the inhibition at 1 µM (Orphenin (hr))?
Answer: The inhibition at 1 µM was 3.53%.

Question: What about the “percentage inhibition of specific binding” value [2] of the same compound?
Answer: The value was 26.16%.

Question: What about the inhibition at 1 µM (Calcium Channel, Type N) of the same compound?
Answer: The inhibition at 1 µM was 3.45%.

Question: And the inhibition at 1 µM (Endothelin, ET-A (h))?
Answer: Its inhibition at 1 µM is 10.2%.

Question: And the IC50 (H1 histamine receptor)?
Answer: Its IC50 is 0.0675 µM.

Question: And the Ki (H1 histamine receptor)?
Answer: Its Ki is 0.0258 µM.

Question: And the inhibition at 1 µM (H1 histamine receptor; [5])?
Answer: Its inhibition at 1 µM is 93.1%.

Question: What about the Slope (H1 histamine receptor; H1 binding curve (Table 13)) of the same compound?
Answer: Its Slope is −0.99.

Question: What about the IC50 (M2 muscarinic receptor) of the same compound?
Answer: Its IC50 is > 10 µM.

Question: What about the Ki (M2 muscarinic receptor) of the same compound?
Answer: The Ki was > 10 µM.

Question: And the inhibition at 1 µM (M2 muscarinic receptor; [5])?
Answer: Its inhibition at 1 µM is 14.6%.

Question: What about the IC50 (M3 muscarinic receptor; M3 receptor binding (Table 19)) of the same compound?
Answer: The IC50 was > 10 µM.

Question: What about the Ki (M3 muscarinic receptor; M3 receptor binding (Table 19), read-out: Ki) of the same compound?
Answer: Its Ki is > 10 µM.

Question: What about the inhibition at 1 µM [3] of the same compound?
Answer: The inhibition at 1 µM was -7.13%.

Question: And the IC50 (M1 muscarinic receptor)?
Answer: Its IC50 is > 10 µM.

Question: And the Ki (M1 muscarinic receptor)?
Answer: The Ki was > 10 µM.

Question: What about the inhibition at 1 µM (M1 muscarinic receptor; [5]) of the same compound?
Answer: Its inhibition at 1 µM is 5.11%.

Question: What about the percentage inhibition [4] of the same compound?
Answer: Its percentage inhibition is −4.76%.

Question: `CC(C)(CN1CCC(=C2c3ccc(F)cc3COc3ccccc32)CC1)C(=O)O` [Compound 49a] was tested. Which LUSB (adult male Wistar rats; dose 0.3 mg/kg oral at CT-18) did it give?
Answer: Its LUSB is 2.8 min.

Question: And the NREM (adult male Wistar rats; dose 0.3 mg/kg oral at CT-18)?
Answer: Its NREM is -6.6 min.

Question: And the LUSB (adult male Wistar rats; dose 1 mg/kg oral at CT-18)?
Answer: The LUSB was 4.3 min.

Question: What about the NREM (adult male Wistar rats; dose 1 mg/kg oral at CT-18) of the same compound?
Answer: The NREM was 18.8 min.

Question: And the LUSB (adult male Wistar rats; dose 3 mg/kg oral at CT-18)?
Answer: The LUSB was 11.6 min.

Question: What about the NREM (adult male Wistar rats; dose 3 mg/kg oral at CT-18) of the same compound?
Answer: The NREM was 37.2 min.

Question: What about the LUSB (adult male Wistar rats; dose 10 mg/kg oral at CT-18) of the same compound?
Answer: The LUSB was 14.1 min.

Question: And the NREM (adult male Wistar rats; dose 10 mg/kg oral at CT-18)?
Answer: Its NREM is 45.3 min.

Question: And the LUSB (adult male Wistar rats; dose 30 mg/kg oral at CT-18)?
Answer: Its LUSB is 12.9 min.

Question: And the NREM (adult male Wistar rats; dose 30 mg/kg oral at CT-18)?
Answer: The NREM was 49.1 min.

Question: And the IC50 (hERG)?
Answer: Its IC50 is 93 µM.

Question: And the inhibition at 0.01 µM (hERG)?
Answer: The inhibition at 0.01 µM was 10%.

Question: And the Ki (H1 histamine receptor; read-out: Ki H1)?
Answer: The Ki was 0.0695 µM.

Question: And the “inhibition of CYP 2D6 activity” value (CYP 2D6)?
Answer: The value was “did not inhibit”.

Question: And the Ki (M2 muscarinic receptor; read-out: Ki M2)?
Answer: Its Ki is > 10 µM.

Question: And the Ki (M3 muscarinic receptor; read-out: Ki M3)?
Answer: Its Ki is > 10 µM.

Question: And the Ki (M1 muscarinic receptor; read-out: Ki M1)?
Answer: Its Ki is > 10 µM.
